Laboratory results taken from the supplement of paper PMC10307832.

Experiments:
Test in all cases: relative viability (nuclei count vs DMSO), 5 days (fraction); higher = more cells survive
[1] = compound: CC1=C(C(=NN1)C)CC2=C(C3=C(S2)N(C(=O)N(C3=O)C)CC(C)C)C(=O)N4C[C@@H](CO4)O + CCNC(=O)c1noc(-c2cc(C(C)C)c(O)cc2O)c1-c1ccc(CN2CCOCC2)cc1 [Luminespib] (partner 0.01 µM)
Summary of the method: (§1)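 Lung cancer cell lines in 1536-well plates were dosed by pin tool the day after seeding, either with one drug alone or with a fixed anchor-drug dose plus five library-drug doses (not always all listed) in √10 steps. After 5 days, cells were fixed and their nuclei stained in one step (final 0.05% Triton X-100, 1% formaldehyde, 1 ug/ml Hoechst), then counted on 4× images. Relative viability is the nuclei count in treated wells divided by that in vehicle wells. Values are medians of duplicate plates.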

[2] = compound: CC1=C(C(=NN1)C)CC2=C(C3=C(S2)N(C(=O)N(C3=O)C)CC(C)C)C(=O)N4C[C@@H](CO4)O + C[C@@H](Oc1cc(-c2cnn(C3CCNCC3)c2)cnc1N)c1c(Cl)ccc(F)c1Cl [Crizotinib] (partner 1 µM)
Summary of the method: as §1

[3] = compound: CC1=C(C(=NN1)C)CC2=C(C3=C(S2)N(C(=O)N(C3=O)C)CC(C)C)C(=O)N4C[C@@H](CO4)O + Nc1nc2[nH]cc(CCc3ccc(C(=O)N[C@@H](CCC(=O)O)C(=O)O)cc3)c2c(=O)[nH]1 [Pemetrexed] (partner 0.2 µM)
Summary of the method: as §1

[4] = compound: Cc1ccccc1C(C(=O)NC1CCCCC1)N(C(=O)Cn1ccnc1C)c1cccc(F)c1 [IDH-C35] + COc1cccc2cc(-c3nc([C@H]4CC[C@H](C(=O)O)CC4)n4ncnc(N)c34)[nH]c12 [OSI-027] (partner 0.5 µM)
Summary of the method: as §1

Row | Cell Line | relative viability ([1]; first compound 0.0025 µM) | relative viability ([1]; first compound 0.007906 µM) | relative viability ([1]; first compound 0.025 µM) | relative viability ([1]; first compound 0.07906 µM) | relative viability ([1]; first compound 0.25 µM) | relative viability ([2]; first compound 0.0025 µM) | relative viability ([2]; first compound 0.007906 µM) | relative viability ([2]; first compound 0.025 µM) | relative viability ([2]; first compound 0.07906 µM) | relative viability ([2]; first compound 0.25 µM) | relative viability ([3]; first compound 0.0025 µM) | relative viability ([3]; first compound 0.007906 µM) | relative viability ([3]; first compound 0.025 µM) | relative viability ([3]; first compound 0.07906 µM) | relative viability ([3]; first compound 0.25 µM) | relative viability ([4]; first compound 0.08 µM) | relative viability ([4]; first compound 0.253 µM) | relative viability ([4]; first compound 0.8 µM) | relative viability ([4]; first compound 2.53 µM) | relative viability ([4]; first compound 8 µM)
1 | 201T | 1.04 | 1.1 | 1.05 | 1.04 | 1.05 | 1.06 | 0.978 | 1.03 | 1.06 | 1.05 | 0.311 | 0.342 | 0.322 | 0.309 | 0.32 | 0.845 | 0.75 | 0.681 | 0.802 | 0.777
2 | A549 |  |  |  |  |  | 0.763 | 0.805 | 0.663 | 0.858 | 1.07 |  |  |  |  |  |  |  |  |  | 
3 | A-427 | 0.949 | 1.19 | 0.921 | 1.03 | 0.957 | 0.904 | 0.953 | 0.879 | 0.917 | 1.13 | 1 | 1.07 | 0.935 | 0.906 | 0.983 | 0.477 | 0.49 | 0.463 | 0.471 | 0.448
4 | ABC-1 |  | 0.606 |  | 0.349 | 0.531 | 1.24 | 0.905 | 1.01 | 0.956 | 0.992 |  |  |  |  |  | 0.528 | 0.516 | 0.582 | 0.531 | 0.441
5 | BEN | 0.235 | 0.383 | 0.242 | 0.335 | 0.325 | 0.912 | 0.719 | 0.75 | 0.604 | 0.847 | 0.697 | 0.836 | 0.558 | 0.665 | 0.687 | 0.308 | 0.318 | 0.298 | 0.328 | 0.261
6 | CAL-12T | 0.393 | 0.895 | 0.315 | 0.303 | 0.404 | 0.76 | 0.724 | 0.558 | 0.667 | 0.817 | 1.28 | 1.36 | 0.956 | 1.08 | 1.38 | 0.642 | 0.759 | 0.667 | 0.704 | 0.489
7 | COR-L23 | 0.756 | 0.744 | 0.666 | 0.549 | 0.765 | 0.679 | 0.56 | 0.445 | 0.403 | 0.386 | 0.22 | 0.214 | 0.195 | 0.223 | 0.204 | 0.843 | 0.696 | 0.861 | 0.829 | 0.731
8 | COR-L 105 | 0.739 | 0.807 | 0.533 | 0.638 | 0.617 | 0.969 | 0.738 | 0.668 | 0.748 | 0.771 | 1.27 | 1.15 | 1.06 | 1.24 | 1.35 | 0.588 | 0.771 | 0.735 | 0.727 | 0.628
9 | Calu-6 |  |  |  |  |  | 0.741 | 0.691 | 0.808 | 0.746 | 1 |  |  |  |  |  |  |  |  |  | 
10 | ChaGo-K-1 | 0.671 | 0.597 | 0.583 | 0.677 | 0.546 | 1.13 | 0.876 |  | 1.09 | 1.25 | 0.26 | 0.261 | 0.261 | 0.254 | 0.249 | 0.604 | 0.523 | 0.529 | 0.637 | 0.572
